According to patent publication US10150760B2, “Compounds for use in preparing heterocyclic triazole agonists of the APJ receptor” (AMGEN INC., priority 2016, dated 2018):
pEC50: −log10 of the molar value.

Target: human APJ receptor (Homo sapiens (Human), UniProt P35414)
Assay: [35S]GTPγS binding assay on membranes from CHO cells stably expressing human APJ receptor
Format: biochemical
Settings: read-out: Activity hAPJ SPA EC50 IP
Description: The human APJ receptor was cloned by polymerase chain reaction and the gene encoding the receptor was subcloned in pFLAG-CMV™-3 expression vector (Sigma, Saint Louis, Mo. USA) in-house at Amgen. A GTPγS binding assay was performed on membranes prepared from CHO cells stably expressing human APJ receptor. The optimum experimental conditions for the concentrations of GDP, MgCl2, and NaCl in the assay buffer were initially determined. The assay was performed in assay buffer [20 mM HEPES, pH 7.5, 5 mM MgCl2, and 0.1% (w/v) BSA with 200 mM NaCl, 3 μM GDP] and membranes expressing human APJ receptor/well along with WGA PS beads. The reaction was initiated by addition of 0.2 nM [^35S]GTPγS (Perkin Elmer Life and Analytical Sciences, Waltham USA) in the absence or presence of various ligands and incubated at RT for 90 min. Nonspecific binding was determined in the presence of 100 μM GTPγS and was always less than 0.2% of total binding. All the results presented are means of several independent experiments and analyzed by non-linear regression methods using commercially available program Prism (GraphPad, San Diego, Calif.) to obtain EC50 detailed in Table 38.

Sequence of human APJ receptor (P35414 whole entry): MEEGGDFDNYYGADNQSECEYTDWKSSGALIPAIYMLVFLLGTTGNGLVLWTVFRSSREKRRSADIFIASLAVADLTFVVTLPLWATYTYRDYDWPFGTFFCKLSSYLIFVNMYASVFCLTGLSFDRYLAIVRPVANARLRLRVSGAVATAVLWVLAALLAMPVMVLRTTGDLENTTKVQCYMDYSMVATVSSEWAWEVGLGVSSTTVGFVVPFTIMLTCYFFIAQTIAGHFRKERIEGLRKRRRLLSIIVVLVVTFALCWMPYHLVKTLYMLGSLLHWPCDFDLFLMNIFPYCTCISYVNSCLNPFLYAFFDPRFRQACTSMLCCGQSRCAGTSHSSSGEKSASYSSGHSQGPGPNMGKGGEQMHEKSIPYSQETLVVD

pEC50	Compound
6.80	(2S,3R)-N-(4-(2,6-difluorophenyl)-5-((3R)-tetrahydro-3-furanyl)-4H-1,2,4-triazol-3-yl)-3-(5-methyl-2-pyrimidinyl)-2-butanesulfonamide or (2S,3R)-N-(4-(2,6-difluorophenyl)-5-((3S)-tetrahydro-3-furanyl)-4H-1,2,4-triazol-3-yl)-3-(5-methyl-2-pyrimidinyl)-2-butanesulfonamide [Example 20.0]
8.25	(2S,3R)-3-(5-chloro-2-pyrimidinyl)-N-(4-(1,3-dimethoxy-2-propanyl)-5-((2R,5R)-5-methyltetrahydro-2-furanyl)-4H-1,2,4-triazol-3-yl)-2-butanesulfonamide or (2S,3R)-3-(5-chloro-2-pyrimidinyl)-N-(4-(1,3-dimethoxy-2-propanyl)-5-((2S,5S)-5-methyltetrahydro-2-furanyl)-4H-1,2,4-triazol-3-yl)-2-butanesulfonamide [Example 374.0]
< 5.38	(1R,2S)-N-(4-(2,6-dimethoxyphenyl)-5-((S)-3-oxoisoindolin-1-yl)-4H-1,2,4-triazol-3-yl)-1-methoxy-1-(5-methylpyrimidin-2-yl)propane-2-sulfonamide or (1R,2S)-N-(4-(2,6-dimethoxyphenyl)-5-((R)-3-oxoisoindolin-1-yl)-4H-1,2,4-triazol-3-yl)-1-methoxy-1-(5-methylpyrimidin-2-yl)propane-2-sulfonamide [Example 236.0]
8.68	(1R,2S)-1-(5-chloro-2-pyridinyl)-N-(4-(1,3-dimethoxy-2-propanyl)-5-((2R,5R)-5-methyltetrahydro-2-furanyl)-4H-1,2,4-triazol-3-yl)-1-methoxy-2-propanesulfonamide or (1R,2S)-1-(5-chloro-2-pyridinyl)-N-(4-(1,3-dimethoxy-2-propanyl)-5-((2S,5S)-5-methyltetrahydro-2-furanyl)-4H-1,2,4-triazol-3-yl)-1-methoxy-2-propanesulfonamide [Example 381.0]
7.72	(2S,3R)-N-(4-(2,6-dimethoxyphenyl)-5-((R)-1,4-dioxan-2-yl)-4H-1,2,4-triazol-3-yl)-3-(5-methylpyrimidin-2-yl)butane-2-sulfonamide or (2S,3R)-N-(4-(2,6-dimethoxyphenyl)-5-((S)-1,4-dioxan-2-yl)-4H-1,2,4-triazol-3-yl)-3-(5-methylpyrimidin-2-yl)butane-2-sulfonamide [Example 205.0]
6.57	COc1ncnc(OC)c1-n1c(NS(=O)(=O)[C@@H](C)[C@H](C)c2ccc(C#N)cn2)nnc1[C@H]1CCOC1 (single isomer, unassigned) [Example 382.0, (2S,3R)-3-(5-cyano-2-pyridinyl)-N-(4-(4,6-dimethoxy-5-pyrimidinyl)-5-((3R)-tetrahydro-3-furanyl)-4H-1,2,4-triazol-3-yl)-2-butanesulfonamide or (2S,3R)-3-(5-cyano-2-pyridinyl)-N-(4-(4,6-dimethoxy-5-pyrimidinyl)-5-((3S)-tetrahydro-3-furanyl)-4H-1,2,4-triazol-3-yl)-2-butanesulfonamide]
7.16	(1S,2S)-N-(4-(1,3-dimethoxy-2-propanyl)-5-((2R,5R)-5-methyltetrahydro-2-furanyl)-4H-1,2,4-triazol-3-yl)-1-(5-methyl-2-pyrazinyl)-1-(2-propanyloxy)-2-propanesulfonamide or (1S,2S)-N-(4-(1,3-dimethoxy-2-propanyl)-5-((2S,5S)-5-methyltetrahydro-2-furanyl)-4H-1,2,4-triazol-3-yl)-1-(5-methyl-2-pyrazinyl)-1-(2-propanyloxy)-2-propanesulfonamide [Example 364.0]
5.72	COCCn1c(NS(=O)(=O)[C@@H](C)[C@H](OC)c2ncc(Cl)cn2)nnc1[C@@H]1COCCO1 (single isomer, unassigned) [Example 312.0, (1R,2S)-N-(5-((R)-1,4-dioxan-2-yl)-4-(2-methoxyethyl)-4H-1,2,4-triazol-3-yl)-1-(5-chloropyrimidin-2-yl)-1-methoxypropane-2-sulfonamide or (1R,2S)-N-(5-((S)-1,4-dioxan-2-yl)-4-(2-methoxyethyl)-4H-1,2,4-triazol-3-yl)-1-(5-chloropyrimidin-2-yl)-1-methoxypropane-2-sulfonamide]
6.59	(2S,3R)-N-(4-(2,6-difluorophenyl)-5-((3S)-tetrahydro-2H-pyran-3-yl)-4H-1,2,4-triazol-3-yl)-3-(5-methyl-2-pyrimidinyl)-2-butanesulfonamide or (2S,3R)-N-(4-(2,6-difluorophenyl)-5-((3R)-tetrahydro-2H-pyran-3-yl)-4H-1,2,4-triazol-3-yl)-3-(5-methyl-2-pyrimidinyl)-2-butanesulfonamide [Example 22.0]
6.64	C[C@H](c1ncc(Cl)cn1)[C@H](C)S(=O)(=O)Nc1nnc([C@@H]2CCOC2)n1[C@H](C)c1ccon1 (single isomer, unassigned) [Example 415.0, (2S,3R)-3-(5-chloro-2-pyrimidinyl)-N-(4-((1R)-1-(1,2-oxazol-3-yl)ethyl)-5-((3S)-tetrahydro-3-furanyl)-4H-1,2,4-triazol-3-yl)-2-butanesulfonamide or (2S,3R)-3-(5-chloro-2-pyrimidinyl)-N-(4-((1S)-1-(1,2-oxazol-3-yl)ethyl)-5-((3S)-tetrahydro-3-furanyl)-4H-1,2,4-triazol-3-yl)-2-butanesulfonamide]

The remaining lines, values behind:

Compound	pEC50
CO[C@H](c1cnc(C)cn1)[C@H](C)S(=O)(=O)Nc1nnc([C@H]2CCOC2)n1C1(C)CC1 (single isomer, unassigned) [Example 128.0, (1R,2S)-1-methoxy-N-(4-(1-methylcyclopropyl)-5-((R)-tetrahydrofuran-3-yl)-4H-1,2,4-triazol-3-yl)-1-(5-methylpyrazin-2-yl)propane-2-sulfonamide or (1R,2S)-1-methoxy-N-(4-(1-methylcyclopropyl)-5-((S)-tetrahydrofuran-3-yl)-4H-1,2,4-triazol-3-yl)-1-(5-methylpyrazin-2-yl)propane-2-sulfonamide]	6.10
COc1cccc(OC)c1-n1c(NS(=O)(=O)[C@@H](C)[C@H](C)c2ncc(F)cn2)nnc1[C@H]1CCC(C)(C)O1 (single isomer, unassigned) [Example 334.0, (2S,3R)-N-(4-(2,6-dimethoxyphenyl)-5-((R)-5,5-dimethyltetrahydrofuran-2-yl)-4H-1,2,4-triazol-3-yl)-3-(5-fluoropyrimidin-2-yl)butane-2-sulfonamide or (2S,3R)-N-(4-(2,6-dimethoxyphenyl)-5-((S)-5,5-dimethyltetrahydrofuran-2-yl)-4H-1,2,4-triazol-3-yl)-3-(5-fluoropyrimidin-2-yl)butane-2-sulfonamide]	8.60
COc1cccc(OC)c1-n1c(NS(=O)(=O)CCc2ncc(Cl)cn2)nnc1[C@@H]1CCCO1 [Example 388.0, 2-(5-chloro-2-pyrimidinyl)-N-(4-(2,6-dimethoxyphenyl)-5-((2S)-tetrahydro-2-furanyl)-4H-1,2,4-triazol-3-yl)ethanesulfonamide]	8.01
COc1cccc(OC)c1-n1c(NS(=O)(=O)[C@@H](C)[C@H](C)c2ncc(C)cn2)nnc1[C@H]1CN(S(C)(=O)=O)CCO1 (single isomer, unassigned) [Example 230.0]	6.35
COc1cccc(OC)c1-n1c(NS(=O)(=O)CCc2ncc(Cl)cn2)nnc1[C@@H]1COCCO1 (single isomer, unassigned) [Example 424.0, 2-(5-chloro-2-pyrimidinyl)-N-(4-(2,6-dimethoxyphenyl)-5-((2R)-1,4-dioxan-2-yl)-4H-1,2,4-triazol-3-yl)ethanesulfonamide or 2-(5-chloro-2-pyrimidinyl)-N-(4-(2,6-dimethoxyphenyl)-5-((2S)-1,4-dioxan-2-yl)-4H-1,2,4-triazol-3-yl)ethanesulfonamide]	7.28
COCC(COC)n1c(NS(=O)(=O)[C@@H](C)[C@H](OC)c2ncc(Cl)cn2)nnc1[C@H]1CCCO1 [Example 330.0, (1R,2S)-1-(5-chloro-2-pyrimidinyl)-N-(4-(1,3-dimethoxy-2-propanyl)-5-((2R)-tetrahydro-2-furanyl)-4H-1,2,4-triazol-3-yl)-1-methoxy-2-propanesulfonamide]	6.80
COc1cccc(OC)c1-n1c(NS(=O)(=O)[C@@H](C)[C@@H](OC(C)C)c2ncc(C)cn2)nnc1[C@H]1CCCOC1 (single isomer, unassigned) [Example 136.0, (1S,2S)-N-(4-(2,6-dimethoxyphenyl)-5-((R)-tetrahydro-2H-pyran-3-yl)-4H-1,2,4-triazol-3-yl)-1-isopropoxy-1-(5-methylpyrimidin-2-yl)propane-2-sulfonamide or (1S,2S)-N-(4-(2,6-dimethoxyphenyl)-5-((S)-tetrahydro-2H-pyran-3-yl)-4H-1,2,4-triazol-3-yl)-1-isopropoxy-1-(5-methylpyrimidin-2-yl)propane-2-sulfonamide]	6.89
COc1cccc(OC)c1-n1c(NS(=O)(=O)[C@@H](C)[C@H](C)c2cnc(C)cn2)nnc1[C@H]1CCOC1 (single isomer, unassigned) [Example 132.0, (2S,3R)-N-(4-(2,6-dimethoxyphenyl)-5-((R)-tetrahydrofuran-3-yl)-4H-1,2,4-triazol-3-yl)-3-(5-methylpyrazin-2-yl)butane-2-sulfonamide or (2S,3R)-N-(4-(2,6-dimethoxyphenyl)-5-((S)-tetrahydrofuran-3-yl)-4H-1,2,4-triazol-3-yl)-3-(5-methylpyrazin-2-yl)butane-2-sulfonamide]	6.85
